Melting point data for 29 compounds are collected here from patent US6369059B1, “Tetracyclic derivatives, process of preparation and use” (ICOS Corporation, priority 1994, dated 2002).

Usually melting point stands for the temperature, or range, at which the solid turns liquid.

Structures are written as SMILES. Some results are limits rather than exact numbers.

In the case of `CN1CC(=O)N2[C@@H](c3ccc(Cl)c(Cl)c3)c3[nH]c4ccccc4c3C[C@@H]2C1=O` (relative stereo) [Example 43, Cis-2,3,6,7,12,12a-Hexahydro-6-(3,4-dichlorophenyl)-2-methyl-pyrazino[2′,1′:6,1]pyrido[3,4-b]indole-1,4-dione], the melting point is > 260 °C.
`CN1CC(=O)N2[C@@H](c3ccc4c(c3)OCCO4)c3[nH]c4ccccc4c3C[C@@H]2C1=O` (relative stereo) [Example 38, Cis-2,3,6,7,12,12a-Hexahydro-6-(3,4-ethylenedioxyphenyl)-2-methyl-pyrazino[2′,1′:6,1]pyrido[3,4-b]indole-1,4-dione]: the melting point lay within 303 to 305 °C.
With `CCOc1ccc([C@H]2c3[nH]c4ccccc4c3C[C@@H]3C(=O)N(C)CC(=O)N23)cc1` (relative stereo) [Example 34, Cis-2,3,6,7,12,12a-Hexahydro-6-(4-ethoxyphenyl)-2methyl-pyrazino[2′,1′:6,1]pyrido[3,4-b]indole-1,4-dione], the melting point lay within 247 to 248 °C.
The same measure for `CCCCN1CC(=O)N2[C@@H](c3ccccc3)c3[nH]c4ccccc4c3C[C@@H]2C1=O` (relative stereo) [Example 44, Cis-2,3,6,7,12,12a-Hexahydro-2-butyl-6-phenyl-pyrazino[2′,1′:6,1]pyrido[3,4-b]indole-1,4-dione]: 243 to 245 °C.
Compound `O=C1[C@@H]2Cc3c([nH]c4ccccc34)[C@H](c3ccccc3)N2C(=O)CN1Cc1ccccc1` (relative stereo) [Example 46, Trans-2,3,6,7,12,12a-Hexahydro-2-benzyl-6-phenyl-pyrazino[2′,1′:6,1]pyrido[3,4-b]indole-1,4-dione] came in with a melting point of 284 °C.
For `CCCCN1CC(=O)N2[C@@H](c3ccc([N+](=O)[O-])cc3)c3[nH]c4ccccc4c3C[C@@H]2C1=O` (relative stereo) [Example 75, Cis-2,3,6,7,12,12a-Hexahydro-2-butyl-6-(4-nitrophenyl)-pyrazino[2′,1′:6,1]pyrido[3,4-b]indole-1,4-dione] the value was 182 °C; for `CCCCN1CC(=O)N2[C@H](c3ccc4c(c3)OCO4)c3[nH]c4ccccc4c3C[C@@H]2C1=O` [Example 80, (6R,12aR)-2,3,6,7,12,12a-Hexahydro-2-butyl-6(3,4-methylenedioxyphenyl)-pyrazino[2′,1′:6,1]pyrido[3,4-b]indole-1,4-dione], 209 to 210 °C.
The same measure for `COc1cccc([C@H]2c3[nH]c4ccccc4c3C[C@@H]3C(=O)N(C)CC(=O)N23)c1` (relative stereo) [Example 33, Cis-2,3,6,7,12,12a-Hexahydro-6-(3-methoxyphenyl)-2-methyl-pyrazino[2′,1′:6,1]pyrido[3,4-b]indole-1,4-dione]: 267 to 269 °C; for `CCc1ccc([C@H]2c3[nH]c4ccccc4c3C[C@@H]3C(=O)N(C)CC(=O)N23)cc1` (relative stereo) [Example 112, Cis-2,3,6,7,12,12a-Hexahydro-6-(4-ethylphenyl)-2-methyl-pyrazino[2′,1′:6,1]pyrido[3,4-b]indole-1,4-dione]: 254 °C.
The same measure for `CCN1CC(=O)N2[C@H](c3ccc(OC)cc3)c3[nH]c4ccccc4c3C[C@@H]2C1=O` [Example 108, (6R,12aR)-2,3,6,7,12,12a-Hexahydro-2-ethyl-6-(4-methoxyphenyl)-pyrazino[2′,1′:6,1]pyrido[3,4-b]indole-1,4-dione]: 277 °C.
`O=C1[C@H]2Cc3c([nH]c4ccccc34)[C@H](c3ccc4c(c3)OCO4)N2C(=O)CN1Cc1ccc(F)cc1` (relative stereo) [Example 24, Cis-2,3,6,7,12,12a-Hexahydro-2-(4-fluorobenzyl)6-(3,4-methylenedioxyphenyl)-pyrazino[2′,1′:6,1]pyrido[3,4-b]indole-1,4-dione] came in with a melting point of 281 to 283 °C.
For `CCCCN1CC(=O)N2[C@@H](c3ccc(Cl)cc3)c3[nH]c4ccccc4c3C[C@@H]2C1=O` (relative stereo) [Example 42, Cis-2,3,6,7,12,12a-Hexahydro-2-butyl-6-(4-chlorophenyl)-pyrazino[2′,1′:6,1]pyrido[3,4-b]indole-1,4-dione] the value was 164 to 166 °C.
The same measure for `CCCCN1CC(=O)N2[C@@H](c3ccc(NC(C)=O)cc3)c3[nH]c4ccccc4c3C[C@@H]2C1=O` (relative stereo) [Example 99, Cis-2,3,6,7,12,12a-Hexahydro-6-(4-acetamidophenyl)-2-butyl-pyrazino[2′,1′:6,1]pyrido[3,4-b]indole-1,4-dione]: 246 °C; for `C[C@@H]1C(=O)N2[C@H](c3ccc4c(c3)OCO4)c3[nH]c4ccccc4c3C[C@@H]2C(=O)N1C` [Example 116, (3R,6R,12aR)-2,3,6,7,12,12a-Hexahydro-2,3-dimethyl-6-(3,4-methylenedioxyphenyl)-pyrazino[2′,1′:6,1]pyrido[3,4-b]indole-1,4-dione]: 219 to 220 °C; for `CN1CC(=O)N2[C@H](c3ccc4c(c3)CCC4)c3[nH]c4ccccc4c3C[C@@H]2C1=O` [Example 93, (6R,12aR)-2,3,6,7,12,12a-Hexahydro-6-(5-indanyl)-2-methyl-pyrazino[2′,1′:6,1]pyrido[3,4-b]indole-1,4-dione]: 262 °C.
For `Cc1ccc([C@H]2c3[nH]c4ccccc4c3C[C@@H]3C(=O)N(CC4CC4)CC(=O)N23)cc1` (relative stereo) [Example 64, Cis-2,3,6,7,12,12a-Hexahydro-2-cyclopropylmethyl-6-(4-methylphenyl)-pyrazino[2′,1′:6,1]pyrido[3,4-b]indole-1,4-dione] the value was 194 °C; for `O=C1[C@H]2Cc3c([nH]c4ccccc34)[C@H](c3ccc4c(c3)OCO4)N2C(=O)CN1Cc1ccccn1` (relative stereo) [Example 10, Cis-2,3,6,7,12,12a-Hexahydro-2-(2-pyridylmethyl)-6-(3,4-methylenedioxyphenyl)-pyrazino[2′,1′:6,1]pyrido[3,4-b]indole-1,4-dione], 285 to 286 °C.
In turn, `O=C1[C@H]2Cc3c([nH]c4ccccc34)[C@H](c3ccc4c(c3)OCO4)N2C(=O)CN1C1CC1` (relative stereo) [Example 17, Cis-2,3,6,7,12,12a-Hexahydro-2cyclopropyl-6-(3,4-methylenedioxyphenyl)-pyrazino[2′,1′:6,1]pyrido[3,4-b]indole-1,4-dione] returned a melting point of 290 to 292 °C.
The same measure for `CCCCN1CC(=O)N2[C@@H](c3cccs3)c3[nH]c4ccccc4c3C[C@@H]2C1=O` (relative stereo) [Example 51, Cis-2,3,6,7,12,12a-Hexahydro-2-butyl-6-(2-thienyl)-pyrazino[2′,1′:6,1]pyrido[3,4-b]indole-1,4-dione]: 226 °C; for `COc1ccc([C@H]2c3[nH]c4ccccc4c3C[C@H]3C(=O)N(C)CC(=O)N23)cc1` (relative stereo) [Example 26, Trans-2,3,6,7,12,12a-Hexahydro-6-(4-methoxyphenyl)-2-methyl-pyrazino[2′,1′:6,1]pyrido[3,4-b]indole-1,4-dione]: 225 to 228 °C; for `CCCCN1CC(=O)N2[C@@H](c3ccc(C#N)cc3)c3[nH]c4ccccc4c3C[C@@H]2C1=O` (relative stereo) [Example 71, Cis-2,3,6,7,12,12a-Hexahydro-2-butyl-6-(4cyanophenyl)-pyrazino[2′,1′:6,1]pyrido[3,4-b]indole-1,4-dione]: 246 °C.
Regarding `CN1CC(=O)N2[C@@H](c3ccc4ccccc4c3)c3[nH]c4ccccc4c3C[C@@H]2C1=O` (relative stereo) [Example 50, Cis-2,3,6,7,12,12a-Hexahydro-2-methyl-6-(2-naphthyl)-pyrazino[2′,1′:6,1]pyrido[3,4-b]indole-1,4-dione], the melting point is > 260 °C.
The compound `CCc1ccc([C@H]2c3[nH]c4ccccc4c3C[C@@H]3C(=O)N(C(C)C)CC(=O)N23)cc1` (relative stereo) [Example 72, Cis-2,3,6,7,12,12a-Hexahydro-6-(4-ethylphenyl)-2-isopropyl-pyrazino[2′,1′:6,1]pyrido[3,4-b]indole-1,4-dione] had a melting point of 130 °C.
For `C[C@H]1C(=O)N2[C@H](c3ccc4c(c3)OCO4)c3[nH]c4ccccc4c3C[C@@H]2C(=O)N1C` [Example 117, (3S,6R,12aR)-2,3,6,7,12,12a-Hexahydro-2,3-dimethyl-6-(3,4-methylenedioxyphenyl)-pyrazino[2′,1′:6,1]pyrido[3,4-b]indole-1,4-dione] the value was 307 to 309 °C; for `CCCCN1CC(=O)N2[C@@H](c3ccc4c(c3)OCO4)c3[nH]c4ccccc4c3C[C@@H]2C1=O` (relative stereo) [Example 18, Cis-2,3,6,7,12,12a-Hexahydro-2-butyl-6-(3,4-methylenedioxyphenyl)-pyrazino[2′,1′:6,1]pyrido[3,4-b]indole-1,4-dione], 241 to 243 °C; for `Cc1cccc([C@H]2c3[nH]c4ccccc4c3C[C@@H]3C(=O)N(C)CC(=O)N23)c1` (relative stereo) [Example 65, Cis-2,3,6,7,12,12a-Hexahydro-2-methyl-6-(3-methylphenyl)-pyrazino[2′,1′:6,1]pyrido[3,4-b]indole-1,4-dione], > 260 °C.
In turn, `COc1ccc([C@@H]2c3[nH]c4ccccc4c3C[C@@H]3C(=O)N(C)CC(=O)N23)cc1` [Example 107, (6R,12aR)-2,3,6,7,12,12a-Hexahydro-6-(4-methoxyphenyl)-2-methyl-pyrazino[2′,1′:6,1]pyrido[3,4-b]indole-1,4-dione] came in with a melting point of 285 to 288 °C.
For `CCCCN1CC(=O)N2[C@@H](c3ccc(OC)cc3)c3[nH]c4ccccc4c3C[C@H]2C1=O` (relative stereo) [Example 30, Trans-2,3,6,7,12,12a-Hexahydro-2-butyl-6-(4-methoxyphenyl)-pyrazino[2′,1′:6,1]pyrido[3,4-b]indole-1,4-dione] the value was 212 to 214 °C.
For `CCCCN1CC(=O)N2[C@@H](c3ccc(C(F)(F)F)cc3)c3[nH]c4ccccc4c3C[C@@H]2C1=O` (relative stereo) [Example 66, Cis-2,3,6,7,12,12a-Hexahydro-2-butyl-6-(4-trifluoromethylphenyl)-pyrazino[2′,1′:6,1]pyrido[3,4-b]indole-1,4-dione] the value was 155 °C.
